These results are taken from patent US20240415819A1, “MACROCYCLIC COMPOUNDS AS PROTEASOME SUBUNIT BETA TYPE-5 INHIBITORS” (Lead Discovery Center GmbH, priority 2021, published 2024).

SMILES strings stand for the structures. Some results are limits rather than exact numbers.

The test system of assay [1] is RPMI 8226 (B lymphocyte cell line, multiple myeloma). Put plainly: 48 hr CTG viability assay, RPMI 8226. In kind it is cell-based. The following applies: Homo sapiens, RPMI-8226; 48 hr CTG; read-out: RPMI-8226 IC50. In short, it runs like this: (§1)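 Growth inhibition by compound over 48 h; IC50 (nM) derived from duplicate CellTiter-Glo luminescence readings across 0.0015–10 uM.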

The test system of assay [2] is A549 (human lung carcinoma cell line). Kind of assay: Glo assay of A549 cells (Table 3; ProteasomeGlo plating scheme). The class given is cell-based. The following applies: Homo sapiens; A549 cells; read-out: PGLo A549. In short, it runs like this:
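Cells plated in 384 wells; compound, DMSO, staurosporine transferred by ECHO; 105 min, 37° C., 5% CO2; Proteasome-Glo (Suc-LLVY-Glo) reagent added; dark 10-15 min; luminescence; IC50 nM.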

For assay [3], the target named is T1, β5 subunit of the human immunoproteasome (IPS) (Homo sapiens, UniProt P28062).
T1 construct: purchased Boston Biochem E-370
Kind of assay: β5 inhibition assay, human immunoproteasome (Suc-LLVY-AMC). The following applies: IC50 class, Suc-LLVY-AMC substrate. In kind it is biochemical. In a few lines: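 β5 activity is read as liberated AMC fluorescence (355/460 nm) after 4 h dark reaction at RT with 22.6 μM Suc-LLVY-AMC, stopped by 1 μM bortezomib. Beforehand, 1 nM human IPS and compound sat 10 min at RT in HEPES pH 7.5 buffer containing NaCl, 0.02% SDS and DTT.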

The test system of assay [4] is MM1 S (B lymphoblast cell line). Put plainly: 48 hr CTG viability assay, MM1S. The class given is cell-based. The conditions noted are these: Homo sapiens, 48 hr CTG, read-out: MM1S IC50. In short, it runs like this:
as §1

For assay [5], the system named is Hs 746T (human gastric carcinoma cell line). Kind of assay: 48 hr CTG viability assay, Hs 746T. The class given is cell-based. The conditions noted are these: Hs746T, 48 hr CTG, read-out: Hs 746T IC50. In a few lines:
as §1

Assay [6] concerns the target T2, β5 subunit of the human constitutive proteasome (CPS) (Homo sapiens, UniProt P28074).
T2 construct: purchased Boston Biochem E-360
Kind of assay: β5 inhibition assay, human constitutive proteasome (Suc-LLVY-AMC). The conditions noted are these: IC50 class, Suc-LLVY-AMC substrate. The class given is biochemical. On the procedure: The enzymatic activity of the β5 subunit of the human constitutive proteasome (CPS) is analyzed. In another assay, which differs from the assay of the human constitutive proteasome only in using the human immunoproteasome (IPS) the enzymatic activity of the β5 subunit of the human immunoproteasome (IPS) is analyzed. […] Inhibition is indicated as IC50 [nM] (“-”=not measured).

`Cc1ccc2cc1CNC(=O)[C@H](CCc1ccccc1)NC(=O)[C@@H](NC(=O)CCOC1CCC1)CC(=O)N1CCCC(CCO2)C1` (stereo partly drawn) [Compound 595, 3-cyclobutoxy-N-((9S,12S)-5^4-methyl-8,11,14-trioxo-9-phenethyl-4-oxa-7,10-diaza-1(3,1)-piperidina-5(1,3)-benzenacyclotetradecaphane-12-yl)propanamide]: the IC50 in assay [1], in assay [2], in assay [3], in assay [4], in assay [5] and in assay [6] was less than 100 nM in each case.
As to `Cc1ccc2cc1CNC(=O)[C@H](CCc1ccccc1)NC(=O)[C@@H](NC(=O)CCOC1CCCC1)CC(=O)N1CCCC(CCO2)C1` (stereo partly drawn) [Compound 629, 3-(cyclopentyloxy)-N-((9S,12S)-5^4-methyl-8,11,14-trioxo-9-phenethyl-4-oxa-7,10-diaza-1(3,1)-piperidina-5(1,3)-benzenacyclotetradecaphane-12-yl)propanamide], the IC50 in assay [1], in assay [2], in assay [3], in assay [4], in assay [5] and in assay [6] was less than 100 nM each time.
Turning to `Cc1ccc2cc1CNC(=O)[C@H](CCN1C[C@@H]3C[C@H]1CO3)NC(=O)[C@@H](NC(=O)Cc1cn3ccsc3n1)CC(=O)N1CCCC(CCO2)C1` [Compound 739, N-((9S,12S)-9-(2-((1S,4S)-2-oxa-5-azabicyclo[2.2.1]heptan-5-yl)ethyl)-5^4-methyl-8,11,14-trioxo-4-oxa-7,10-diaza-1(3,1)-piperidina-5(1,3)-benzenacyclotetradecaphane-12-yl)-2-(imidazo[2,1-b]thiazol-6-yl)acetamide], the IC50 is less than 100 nM in assay [1]; less than 100 nM in assay [2]; less than 100 nM in assay [3]; less than 100 nM in assay [4]; 100 to 500 nM in assay [5]; less than 100 nM in assay [6].
On to `Cc1ccc2cc1CNC(=O)[C@H](CCc1ccccc1)NC(=O)[C@@H](NC(=O)CCNCCC1CC3CCC1C3)CC(=O)N1CCCC(CCO2)C1` (stereo partly drawn) [Compound 698, 3-((2-(bicyclo[2.2.1]heptan-2-yl)ethyl)amino)-N-((9S,12S)-5^4-methyl-8,11,14-trioxo-9-phenethyl-4-oxa-7,10-diaza-1(3,1)-piperidina-5(1,3)-benzenacyclotetradecaphane-12-yl)propanamide], for which the IC50 in assay [1], in assay [2], in assay [3], in assay [4], in assay [5] and in assay [6] was less than 100 nM throughout.
For the compound `Cc1ccc2cc1CNC(=O)[C@H](CCc1ccccc1)NC(=O)[C@@H](NC(=O)N1CCC(O)CC1)CC(=O)N1CCCC(CCO2)C1` (stereo partly drawn) [Compound 681, 4-hydroxy-N-((9S,12S)-5^4-methyl-8,11,14-trioxo-9-phenethyl-4-oxa-7,10-diaza-1(3,1)-piperidina-5(1,3)-benzenacyclotetradecaphane-12-yl)piperidine-1-carboxamide], the IC50 in assay [1], in assay [2], in assay [3], in assay [4], in assay [5] and in assay [6] was less than 100 nM each time.
With `Cc1ccc2cc1CNC(=O)[C@H](CCc1ccccc1)NC(=O)[C@@H](NS(=O)(=O)CC(F)(F)F)CC(=O)N1CCCC(CCO2)C1` (stereo partly drawn) [Compound 601, 2,2,2-trifluoro-N-((9S,12S)-5^4-methyl-8,11,14-trioxo-9-phenethyl-4-oxa-7,10-diaza-1(3,1)-piperidina-5(1,3)-benzenacyclotetradecaphane-12-yl)ethane-1-sulfonamide], the IC50 in assay [1], in assay [2], in assay [3], in assay [4], in assay [5] and in assay [6] was less than 100 nM each time.
Take `Cc1ccc2cc1CNC(=O)[C@H](CCc1ccccc1)NC(=O)[C@@H](NC(=O)CCN1CCC3(CCOC3)C1)CC(=O)N1CCCC(CCO2)C1` (stereo partly drawn) [Compound 640, N-((9S,12S)-5^4-methyl-8,11,14-trioxo-9-phenethyl-4-oxa-7,10-diaza-1(3,1)-piperidina-5(1,3)-benzenacyclotetradecaphane-12-yl)-3-(2-oxa-7-azaspiro[4.4]nonan-7-yl)propanamide]: the IC50 in assay [1], in assay [2], in assay [3], in assay [4], in assay [5] and in assay [6] was less than 100 nM throughout.
For the compound `Cc1ccc2cc1CNC(=O)[C@H](CCc1ccccc1)NC(=O)[C@@H](NC(=O)N1CC(O)C1)CC(=O)N1CCCC(CCO2)C1` (stereo partly drawn) [Compound 691, 3-hydroxy-N-((9S,12S)-5^4-methyl-8,11,14-trioxo-9-phenethyl-4-oxa-7,10-diaza-1(3,1)-piperidina-5(1,3)-benzenacyclotetradecaphane-12-yl)azetidine-1-carboxamide], the IC50 in assay [1], in assay [2], in assay [3], in assay [4], in assay [5] and in assay [6] was less than 100 nM each time.
Consider `Cc1ccc2cc1CNC(=O)[C@H](CCc1ccccc1)NC(=O)[C@@H](NC(=O)CCNC1CCCC1)CC(=O)N1CCCC(CCO2)C1` (stereo partly drawn) [Compound 675, 3-(cyclopentylamino)-N-((9S,12S)-5^4-methyl-8,11,14-trioxo-9-phenethyl-4-oxa-7,10-diaza-1(3,1)-piperidina-5(1,3)-benzenacyclotetradecaphane-12-yl)propanamide], for which the IC50 in assay [1], in assay [2], in assay [3], in assay [4], in assay [5] and in assay [6] was less than 100 nM throughout.
With `Cc1ccc2cc1CNC(=O)[C@H](CCc1ccccc1)NC(=O)[C@@H](NC(=O)N1CCCc3cc(N)ccc31)CC(=O)N1CCCC(CCO2)C1` (stereo partly drawn) [Compound 667, 6-amino-N-((9S,12S)-5^4-methyl-8,11,14-trioxo-9-phenethyl-4-oxa-7,10-diaza-1(3,1)-piperidina-5(1,3)-benzenacyclotetradecaphane-12-yl)-3,4-dihydroquinoline-1(2H)-carboxamide], the IC50 in assay [1], in assay [2], in assay [3], in assay [4], in assay [5] and in assay [6] was less than 100 nM in each case.
On to `Cc1ccc2cc1CNC(=O)[C@H](CCc1ccccc1)NC(=O)[C@@H](NC(=O)CCNCC1CCC1)CC(=O)N1CCCC(CCO2)C1` (stereo partly drawn) [Compound 674, 3-((cyclobutylmethyl)amino)-N-((9S,12S)-5^4-methyl-8,11,14-trioxo-9-phenethyl-4-oxa-7,10-diaza-1(3,1)-piperidina-5(1,3)-benzenacyclotetradecaphane-12-yl)propanamide], for which the IC50 in assay [1], in assay [2], in assay [3], in assay [4], in assay [5] and in assay [6] was less than 100 nM each time.
For the compound `Cc1ccc2cc1CNC(=O)[C@H](CCc1ccccc1)NC(=O)[C@@H](NC(=O)CCOCCc1ccccc1)CC(=O)N1CCCC(CCO2)C1` (stereo partly drawn) [Compound 618, N-((9S,12S)-5^4-methyl-8,11,14-trioxo-9-phenethyl-4-oxa-7,10-diaza-1(3,1)-piperidina-5(1,3)-benzenacyclotetradecaphane-12-yl)-3-phenethoxypropanamide], the IC50 in assay [1], in assay [2], in assay [3], in assay [4], in assay [5] and in assay [6] was less than 100 nM throughout.
On to `C#CCC[C@@H]1NC(=O)[C@@H](NC(=O)Cc2cn3ccsc3n2)CC(=O)N2CCCC(CCOc3ccc(C)c(c3)CNC1=O)C2` (stereo partly drawn) [Compound 686, N-((9S,12S)-9-(but-3-yn-1-yl)-5^4-methyl-8,11,14-trioxo-4-oxa-7,10-diaza-1(3,1)-piperidina-5(1,3)-benzenacyclotetradecaphane-12-yl)-2-(imidazo[2,1-b]thiazol-6-yl)acetamide], for which the IC50 in assay [1], in assay [2], in assay [3], in assay [4], in assay [5] and in assay [6] was less than 100 nM throughout.
